How the values were obtained:
[1] = molecular target: His-GST-TVMV-hRIPK1(1-324) (Homo sapiens (Human), UniProt Q13546); experiment: RIPK1 HTRF Binding Assay; details: HTRF binding, 1 h at rt; read-out: RIPK1 (IC50)
Procedure: A solution was prepared containing 0.2 nM Anti GST-Tb (Cisbio, 61GSTTLB), 90.6 nM probe and 1 nM His-GST-TVMV-hRIPK1(1-324) in FRET Buffer (20 mM HEPES, 10 mM MgCl2, 0.015% Brij-35, 4 mM DTT, 0.05 mg/mL BSA). Using Formulatrix Tempest, the detection antibody/enzyme/probe solution ([…]) was dispensed into wells of a 1536 plate (Black Low Binding Polystyrene 1536 Plate (Corning, 3724)) containing 10 nL of compounds of interest at appropriate concentration in DMSO. The plate was incubated at rt for 1 h. FRET was measured using the EnVision plate reader (Excitation: 340 nm, Emission: 520 nm/[…]). Total signal (0% inhibition) was calculated from wells containing 10 nL DMSO only.
The coding region of human RIPK1(1-324) flanked by NdeI site at 5′ end and stop codon TGA and XhoI site at 3′ end was codon optimized and gene synthesized at GenScript USA Inc. (Piscataway, N.J.) and subcloned into a modified pFastBacl vector (Invitrogen, Carlsbad, Calif.) with N-terminal His-GST-TVMV tag, to generate His-GST-TVMV-hRIPK1(1-324)-pFB. The fidelity of the synthetic fragment was confirmed by sequencing.

[2] = test system: MLKL phosphorylation in HT29-L23 human colorectal adenocarcinoma cells; experiment: MLKL Phosphorylation High-Content Assay; type: cell-based; details: Homo sapiens, 6 h, necroptosis induced with TNFα, SMAC mimetic and Z-VAD, read-out: pMLKL (IC50)
Procedure: MLKL Phosphorylation High-Content Assay
HT29-L23 human colorectal adenocarcinoma cells were maintained in RPMI 1640 medium containing 10% heat-inactivated FBS, 1% Pennicilin-Streptomycin and 10 mM HEPES. Cells were seeded at 2,000 cells/well in 384 w tissue culture-treated microplates (Greiner #781090-3B) and incubated at 37° C. (5% CO2/95% O2) for two days. On the day of assay, the cells were treated with test compounds at final concentrations of 6.25 to 0.106 μM for 30 min at 37° C. (5% CO2/95% O2). Necroptopsis was induced using a mixture of human TNFα (35 ng/mL) (Peprotech #300-01A), SMAC mimetic (from US 2015/0322111 A1) (700 nM) and Z-VAD (140 nM) (BD pharmingen #51-6936). Following six hours incubation at 37° C. (5% CO2/95% O2), the cells were fixed with 4% formaldedye (ACROS 11969-0010) for 15 min at room temperature and then permeabilized with phoshpate buffered saline (PBS) containing 0.2% Triton-X-100 for 10 min. MLKL phosporylation was detected using anti-MLKL (phospho S358) antibody (Abcam # ab187091) (1:1000 dilution in Blocking Buffer [PBS supplemented with 0.1% BSA]) with overnight incubation at 4° C. After washing three times in PBS, goat anti-rabbit Alexa-488 (1:1000 dilution) (Life Technologies, A11008) and Hoechst 33342 (Life Technologies, H3570) (1:2000 dilution) in Blocking Buffer were added for 1 h at room temperature. Following another three cycles of washes in PBS, the microplates were sealed, and cellular images were acquired in the Cellomics ArrayScan VTI high-content imager equipped with an X1 camera. Fluorescent images were taken using a 10× objective and the 386-23 BGRFRN_BGRFRN and 485-20 BGRFRN_BGRFRN filter sets, for nuclei and MLKL phosphorylation, respectively. The image sets were analyzed using the Compartmental Analysis Bioapplication software (Cellomics). The level of MLKL phosphorylation was quantified as MEAN_CircRingAvgIntenRatio. […] The IC50 value was defined as the concentration of compound that produces 50% of the maximal inhibition. The data were fitted using the 4-parameter logistic equation to calculate the IC50 and Ymax values.

His-GST-TVMV-hRIPK1(1-324), sequence (Q13546 1-324): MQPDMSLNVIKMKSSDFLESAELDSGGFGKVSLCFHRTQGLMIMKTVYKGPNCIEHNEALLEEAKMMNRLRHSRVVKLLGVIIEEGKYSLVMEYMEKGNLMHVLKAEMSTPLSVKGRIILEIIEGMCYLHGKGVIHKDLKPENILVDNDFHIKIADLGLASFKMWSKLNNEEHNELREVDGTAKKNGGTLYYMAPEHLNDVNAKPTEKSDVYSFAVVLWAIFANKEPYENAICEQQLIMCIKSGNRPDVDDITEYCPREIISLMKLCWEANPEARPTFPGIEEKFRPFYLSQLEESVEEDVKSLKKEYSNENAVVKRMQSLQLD

| SMILES | IC50 [1] [nM] | IC50 [2] [nM] |
| --- | --- | --- |
| COc1ncc(-c2ccc3nc(NC(C)=O)c(C)n3n2)cc1C(=O)NCc1cc(OC(F)(F)F)ccc1F [Example 6, 5-{2-acetamido-3-methylimidazo[1,2-b]pyridazin-6-yl}-N-{[2-fluoro-5-(trifluoromethoxy)phenyl]methyl}-2-methoxypyridine-3-carboxamide] | 25 | 10 |
| COc1ncc(-c2ccc3nc(NC(=O)CC#N)cn3n2)cc1C(=O)NCc1cc(F)cc(F)c1OCC1CC1 [Example 7, 5-[2-(2-cyanoacetamido)imidazo[1,2-b]pyridazin-6-yl]-N-{[2-(cyclopropylmethoxy)-3,5-difluorophenyl]methyl}-2-methoxypyridine-3-carboxamide] | 14 | 38 |
| COc1ncc(-c2ccc3nc(NC(=O)C(C)(C)C#N)cn3n2)cc1C(=O)NCc1cc(F)cc(F)c1OCC1CC1 [Example 8, 5-[2-(2-Cyano-2,2-dimethylacetamido)imidazo[1,2-b]pyridazin-6-yl]-N-{[2-(cyclopropylmethoxy)-3,5-difluorophenyl]methyl}-2-methoxypyridine-3-carboxamide] | 39 | 41 |
| CCC(=O)Nc1cn2nc(-c3cnc(OC)c(C(=O)NCc4cc(OC(F)(F)F)ccc4F)c3)ccc2n1 [Example 10, N-{[2-fluoro-5-(trifluoromethoxy)phenyl]methyl}-2-methoxy-5-{2-propanamidoimidazo[1,2-b]pyridazin-6-yl}pyridine-3-carboxamide] | 11 | 33 |
| COc1ncc(-c2ccc3nc(NC(=O)C(C)C)cn3n2)cc1C(=O)NCc1cc(OC(F)(F)F)ccc1F [Example 11, N-{[2-fluoro-5-(trifluoromethoxy)phenyl]methyl}-2-methoxy-5-[2-(2-methylpropanamido)imidazo[1,2-b]pyridazin-6-yl]pyridine-3-carboxamide] | 20 | 89 |
| CC(=O)Nc1cn2nc(-c3cnc(Cl)c(C(=O)NCc4cc(OC(F)(F)F)ccc4F)c3)ccc2n1 [Example 12, 2-chloro-5-{2-acetamidoimidazo[1,2-b]pyridazin-6-yl}-N-{[2-fluoro-5-(trifluoromethoxy)phenyl]methyl}pyridine-3-carboxamide] | 5 | 27 |
| [2H]C([2H])([2H])Oc1ncc(-c2ccc3nc(NC(C)=O)cn3n2)cc1C(=O)NCc1ccccc1OC(F)(F)F [Example 14, 5-{2-acetamidoimidazo[1,2-b]pyridazin-6-yl}-2-(D3)methoxy-N-{[2-(trifluoromethoxy)phenyl]methyl}pyridine-3-carboxamide] | 33 | 69 |
| COc1ncc(-c2ccc3nc(NC(=O)C(C)(C)O)cn3n2)cc1C(=O)NCc1cccc(F)c1OCC1CC1 [Example 15, N-{[2-(cyclopropylmethoxy)-3-fluorophenyl]methyl}-5-[2-(2-hydroxy-2-methylpropanamido)imidazo[1,2-b]pyridazin-6-yl]-2-methoxypyridine-3-carboxamide] | 83 | 198 |
| CC(=O)Nc1cn2nc(-c3cc(C(=O)NCc4cc(F)cc(F)c4OCC4CC4)cnc3C)ccc2n1 [Example 16, N-{[2-(cyclopropylmethoxy)-3,5-difluorophenyl]methyl}-5-{2-acetamidoimidazo[1,2-b]pyridazin-6-yl}-6-methylpyridine-3-carboxamide] | 4 | 5 |
| COc1nc(C)c(-c2ccc3nc(NC(C)=O)cn3n2)cc1C(=O)NCc1ccccc1OC(C)CO (stereo not drawn) [Example 17, 5-{2-acetamidoimidazo[1,2-b]pyridazin-6-yl}-N-({2-[(1-hydroxypropan-2-yl)oxy]phenyl}methyl)-2-methoxy-6-methylpyridine-3-carboxamide] | 27 | 129 |
| CC(=O)Nc1cn2nc(-c3cnc(C(F)(F)F)c(C(=O)NCc4cc(OC(F)(F)F)ccc4F)c3)ccc2n1 [Example 18, 5-{2-acetamidoimidazo[1,2-b]pyridazin-6-yl}-N-{[2-fluoro-5-(trifluoromethoxy)phenyl]methyl}-2-(trifluoromethyl)pyridine-3-carboxamide] | 145 | 177 |
| COc1nc(C)c(-c2ccc3nc(NC(C)=O)cn3n2)cc1C(=O)NCc1ccccc1OC(F)(F)F [Example 19, 5-{2-acetamidoimidazo[1,2-b]pyridazin-6-yl}-2-methoxy-6-methyl-N-{[2-(trifluoromethoxy)phenyl]methyl}pyridine-3-carboxamide] | 12 | 34 |
| CC(=O)Nc1cn2nc(-c3cnc(C)c(C(=O)NCc4ccccc4OC(C)C)c3)ccc2n1 [Example 20, 5-{2-acetamidoimidazo[1,2-b]pyridazin-6-yl}-2-methyl-N-{[2-(propan-2-yloxy)phenyl]methyl}pyridine-3-carboxamide] | 46 | 63 |
| CC(=O)Nc1cn2nc(-c3cncc(C(=O)NCc4ccccc4OC4CCCC4)c3)ccc2n1 [Example 21, N-{[2-(cyclopentyloxy)phenyl]methyl}-5-{2-acetamidoimidazo[1,2-b]pyridazin-6-yl}pyridine-3-carboxamide] | 10 | 29 |
| COc1ncc(-c2ccc3nc(NC(C)=O)cn3n2)cc1C(=O)NCc1ccccc1OCC1CC1 [Example 22, N-{[2-(cyclopropylmethoxy)phenyl]methyl}-5-{2-acetamidoimidazo[1,2-b]pyridazin-6-yl}-2-methoxypyridine-3-carboxamide] | 4 | 26 |
| COc1ncc(-c2ccc3nc(NC(C)=O)cn3n2)cc1C(=O)NCCC(O)c1ccc(Cl)cc1 (stereo not drawn) [Example 23, N-[3-(4-chlorophenyl)-3-hydroxypropyl]-5-{2-acetamidoimidazo[1,2-b]pyridazin-6-yl}-2-methoxypyridine-3-carboxamide] | 124 | 127 |
| CC(CCNC(=O)c1cccc(-c2ccc3nc(NC(=O)c4ccnc(F)c4)cn3n2)c1)c1ccccc1 (stereo not drawn) [Example 24, 2-fluoro-N-(6-{3-[(3-phenylbutyl)carbamoyl]phenyl}imidazo[1,2-b]pyridazin-2-yl)pyridine-4-carboxamide] | 5 | 10 |
| COc1ncc(-c2ccc3nc(NC(C)=O)cn3n2)cc1C(=O)NCCC(C)c1ccccc1 (stereo not drawn) [Example 25, 5-{2-acetamidoimidazo[1,2-b]pyridazin-6-yl}-2-methoxy-N-(3-phenylbutyl)pyridine-3-carboxamide] | 2 | 9 |
| Cc1ncc(-c2ccc3nc(NC(=O)C(C)(C)C#N)cn3n2)cc1C(=O)NCc1ccccc1Sc1ccccc1CO [Example 26, 5-[2-(2-cyano-2,2-dimethylacetamido)imidazo[1,2-b]pyridazin-6-yl]-N-[(2-{[2-(hydroxymethyl)phenyl]sulfanyl}phenyl)methyl]-2-methylpyridine-3-carboxamide] | 25 | 192 |
| Cc1ncc(-c2ccc3nc(NC(=O)C(C)(C)C#N)cn3n2)cc1C(=O)N[C@H](C)c1cc(OC(F)(F)F)ccc1F [Example 27, 5-[2-(2-cyano-2,2-dimethylacetamido)imidazo[1,2-b]pyridazin-6-yl]-N-[(1R)-1-[2-fluoro-5-(trifluoromethoxy)phenyl]ethyl]-2-methylpyridine-3-carboxamide] | 109 | 108 |
| COc1ncc(-c2ccc3nc(NC(=O)C(C)(C)C#N)cn3n2)cc1C(=O)NCc1cc(OC(F)(F)F)ccc1F [Example 28, 5-[2-(2-cyano-2,2-dimethylacetamido)imidazo[1,2-b]pyridazin-6-yl]-N-{[2-fluoro-5-(trifluoromethoxy)phenyl]methyl}-2-methoxypyridine-3-carboxamide] | 285 | 248 |
